For seven compounds, animals died, LD50 and ED35 results are on record in US4021479A, “Derivatives of 4-(4-biphenylyl)-butyric acid” (Boehringer Ingelheim GmbH, priority 1971, dated 1977).

Where a name gives a salt, the structure may show the parent alone.

Assay type in all cases: in vivo
In one series the test system is adult laboratory rats. Briefly: acute toxicity (LD50) in adult laboratory rats. Conditions: p.o., rats, printed in parentheses under the LD50 bound; observation period of 14 days. The method, then: (§1) The acute toxicities of the compounds (LD50) were determined in adult laboratory rats from the percentage of animals which died after administration of varying doses within an observation period of 14 days [see J. Pharmacol. exper. Therap. 96, 99 1949)].

The nature of series [1]: acute toxicity (LD50) in adult laboratory rats. Conditions: rat, in vivo, po, adult rats, observation period of 14 days. As to the method: as §1
Series [2] relates to kaolin-induced edema in the hind paw of rats. Briefly: antiexudative action against the kaolin-induced edema in the hind paw of rats (Hillebrecht). Conditions: Rattus norvegicus, po, dose which produces a 35% reduction in the edematous swelling. The method, then: The antiphlogistic activity of the compounds of the present invention was ascertained by the standard test method Hillebrecht described in Arzneimittelforschung 4, 607-614 (1954), i.e. in terms of the antiexudative action against the kaolin-induced edema in the hind paw of rats. The measurements were carried out by the method of Doepfner and Cerletti, Int. Arch. Allergy and Appl. Immunology 12, 89-97 (1958). The data thus obtained were plotted on a dose-activity graph, and from the resulting curve the dose which produces a 35% reduction in the edematons swelling (ED35) was graphically calculated for each compound.

Broadly, the LD50 is the dose expected to kill half of the subjects tested. Read a high LD50 as a less toxic substance.

`O=C(O)CCC(O)c1ccc(-c2ccccc2[N+](=O)[O-])cc1` (centres unmarked) [A, cyclohexylamine salt of 4-(2'-nitro-4-biphenylyl)-4-hydroxy-butyric acid]: the animals died in the series with adult laboratory rats is listed as 0 out of 5. This compound registered an LD50 at 336 h in series [1] of more than 500 mg/kg. In series [2], the ED35 was 30 mg/kg.

In series [1], `Nc1ccccc1-c1ccc(C(O)CCC(=O)O)cc1` (centres unmarked) [B, cyclohexylamine salt of 4-(2'-amino-4-biphenylyl)-4-hydroxy-butyric acid] returned an LD50 at 336 h of 1340 mg/kg. In series [2], this compound had an ED35 of 66 mg/kg.

For the compound `O=C(O)CCCc1ccc(-c2ccccc2[N+](=O)[O-])cc1` [C, cyclohexylamine salt of 4-(2'-nitro-4-biphenylyl)-butyric acid], the animals died in the series with adult laboratory rats was 3 out of 10. This compound returned an LD50 at 336 h in series [1] of more than 1000 mg/kg. Also, the ED35 in series [2] came to 66 mg/kg.

In the case of `O=C(O)CCC(O)c1ccc(-c2ccccc2Cl)cc1` (centres unmarked) [Compound E, cyclohexylamine salt of 4-(2'-chloro-4-biphenylyl)-4-hydroxy-butyric acid], the animals died in the series on adult laboratory rats is 1 out of 10. The compound further showed an LD50 at 336 h in series [1] of more than 1000 mg/kg. This compound also gave an ED35 in series [2] of 27 mg/kg.

As for `O=C(O)CCCc1ccc(-c2ccccc2F)cc1` [D, cyclohexylamine salt of 4-(2'-fluoro-4-biphenylyl)-butyric acid], the animals died with adult laboratory rats is listed as 0 out of 10. The same compound displayed an LD50 at 336 h in series [1] of more than 500 mg/kg. Further, the ED35 in series [2] was 37 mg/kg.

`O=C(O)CCCc1ccc(-c2ccccc2Cl)cc1` [F, cyclohexylamine salt of 4-(2'-chloro-4-biphenylyl)-butyric acid]: the animals died in the series with adult laboratory rats is 2 out of 10. The LD50 at 336 h in series [1] was more than 1000 mg/kg. The ED35 in series [2] came out at 50 mg/kg.

As to `O=C(O)CCCc1ccc(-c2ccc([N+](=O)[O-])cc2)cc1` [G, cyclohexylamine salt of 4-(4'-nitro-4-biphenylyl)-butyric acid], the animals died in the series with adult laboratory rats is reported as 0 out of 10. This compound displayed an LD50 at 336 h in series [1] of more than 1000 mg/kg. For the same compound, the ED35 in series [2] is 30 mg/kg.
